Values quoted from earlier work in patent US20080103154A1, “3, 4-dihydro-2(IH)-quinolinone and 2(1H)-quinolinone derivatives” (Concert Pharmaceuticals Inc., priority 2006, published 2008).

How the values were obtained:
5-HT2C = biological target: T1, 5-HT2C (Homo sapiens, UniProt P28335); settings: transfected cell lines expressing rat and human receptors
T1 sequence (P28335 33-458): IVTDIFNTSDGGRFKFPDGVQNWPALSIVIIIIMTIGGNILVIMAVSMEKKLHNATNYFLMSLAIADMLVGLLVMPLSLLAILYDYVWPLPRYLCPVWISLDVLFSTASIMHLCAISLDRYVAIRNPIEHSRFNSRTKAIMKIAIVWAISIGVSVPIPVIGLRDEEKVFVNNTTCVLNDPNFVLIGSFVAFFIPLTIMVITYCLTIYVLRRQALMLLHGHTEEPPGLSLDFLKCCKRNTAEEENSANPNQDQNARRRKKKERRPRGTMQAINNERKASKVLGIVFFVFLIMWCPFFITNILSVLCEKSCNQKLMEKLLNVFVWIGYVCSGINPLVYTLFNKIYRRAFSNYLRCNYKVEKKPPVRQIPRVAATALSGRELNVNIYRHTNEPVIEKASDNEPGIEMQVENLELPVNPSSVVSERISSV

5-HT2A = 5-HT2A (Homo sapiens, UniProt P28223); settings: transfected cell lines expressing rat and human receptors
Sequence of 5-HT2A (P28223 whole entry): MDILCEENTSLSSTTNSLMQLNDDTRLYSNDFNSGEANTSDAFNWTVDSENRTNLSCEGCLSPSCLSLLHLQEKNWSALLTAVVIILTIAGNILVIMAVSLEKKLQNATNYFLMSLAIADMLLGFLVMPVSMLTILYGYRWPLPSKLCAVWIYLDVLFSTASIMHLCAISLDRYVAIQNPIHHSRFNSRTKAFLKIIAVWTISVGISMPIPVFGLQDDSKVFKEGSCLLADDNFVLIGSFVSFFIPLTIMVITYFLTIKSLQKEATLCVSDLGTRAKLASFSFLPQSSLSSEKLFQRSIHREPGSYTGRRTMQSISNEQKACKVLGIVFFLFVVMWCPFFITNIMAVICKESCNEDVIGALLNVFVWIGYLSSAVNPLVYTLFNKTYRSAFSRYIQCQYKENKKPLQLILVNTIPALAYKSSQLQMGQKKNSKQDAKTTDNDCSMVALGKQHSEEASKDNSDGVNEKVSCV

α1 = settings: transfected cell lines expressing rat and human receptors
5-HT1A = biological target: T2, 5-HT1A (Homo sapiens, UniProt P08908); settings: transfected cell lines expressing rat and human receptors
T2 sequence (P08908 1-422): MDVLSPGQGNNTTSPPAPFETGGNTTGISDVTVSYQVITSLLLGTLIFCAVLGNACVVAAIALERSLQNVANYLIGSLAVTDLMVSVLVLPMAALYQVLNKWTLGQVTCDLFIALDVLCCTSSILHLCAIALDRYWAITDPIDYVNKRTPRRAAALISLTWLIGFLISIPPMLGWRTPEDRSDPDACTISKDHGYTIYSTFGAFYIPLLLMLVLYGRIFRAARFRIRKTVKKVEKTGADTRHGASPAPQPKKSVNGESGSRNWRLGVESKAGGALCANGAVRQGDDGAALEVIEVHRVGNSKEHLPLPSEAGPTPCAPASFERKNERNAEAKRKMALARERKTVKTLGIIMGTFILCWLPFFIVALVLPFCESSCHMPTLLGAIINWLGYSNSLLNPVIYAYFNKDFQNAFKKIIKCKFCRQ

H1 receptors = H1 receptors (Homo sapiens, UniProt P35367); settings: transfected cell lines expressing rat and human receptors
Sequence of H1 receptors (P35367 whole entry): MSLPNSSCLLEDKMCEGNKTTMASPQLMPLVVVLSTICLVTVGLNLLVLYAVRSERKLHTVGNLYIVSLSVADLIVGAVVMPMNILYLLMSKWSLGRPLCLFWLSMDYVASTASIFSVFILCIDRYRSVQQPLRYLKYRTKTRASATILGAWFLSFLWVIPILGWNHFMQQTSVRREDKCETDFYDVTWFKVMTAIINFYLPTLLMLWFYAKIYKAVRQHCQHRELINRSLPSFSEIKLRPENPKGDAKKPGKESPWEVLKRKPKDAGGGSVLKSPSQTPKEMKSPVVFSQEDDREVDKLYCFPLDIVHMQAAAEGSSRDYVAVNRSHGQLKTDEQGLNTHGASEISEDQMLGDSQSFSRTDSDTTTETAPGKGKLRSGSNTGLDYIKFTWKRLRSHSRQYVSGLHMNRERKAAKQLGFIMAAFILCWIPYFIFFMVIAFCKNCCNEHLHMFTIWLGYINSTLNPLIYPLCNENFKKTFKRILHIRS

[1] = not given; remark: listed apart in the source

## O=C1CCc2ccc(OCCCCN3CCN(c4cccc(Cl)c4Cl)CC3)cc2N1 [Aripiprazole]
5-HT2C
  affinity to 5-HT2C: moderate affinity
humans
  metabolism: extensively metabolized
Oral administration in humans
  absorption: well absorbed
Oral formulation, humans
  absolute oral bioavailability: 87%
5-HT2A
  affinity binding to 5-HT2A: high affinity
α1
  affinity to α1: moderate affinity
5-HT1A
  affinity binding to 5-HT1A: high affinity
H1 receptors
  affinity to H1 receptors: moderate affinity

## O=c1ccc2ccc(OCCCCN3CCN(c4cccc(Cl)c4Cl)CC3)cc2[nH]1 [dehydroaripiprazole]
[1]; humans
  share of activity accounted for by metabolite: 20%
[1]; metabolite of aripiprazole
  potency relative to aripiprazole: equipotent with aripiprazole
